# From US5821231A, “CS-1 peptidomimetics, compositions and methods of using same” (Cytel Corporation, priority 1995, dated 1998)
# Square brackets hold non-standard residues; d marks the D form. Peptide text beside a SMILES is read from it. * marks the point of attachment. PhAc = O=C(Cc1ccccc1)*
# Key:
# [1] = Retention of potency in PBS containing 10 percent mouse or human serum; format: in vitro ADME; details: 24 hours in PBS at 7.2-7.4 containing 10 percent mouse or human serum
# BALB/c mice = assay: Adoptive transfer delayed type hypersensitivity in mice (oxazolone); format: in vivo, mouse
# Protocol: An adoptive transfer delayed-type hypersensitivity murine model has been developed using splenic T cells primed to oxazolone. This model is described in Elices et al., Clin. Exp. Rheum., 11(Suppl. 8):577-580 (1993), whose procedures were followed here.
# Thus, BALB/c mice were shaved on the belly and painted (50 μl on the belly and 5 μl on each paw) with three percent oxazolone in acetone/olive oil (4:1) at days zero and 1. At day 5, the mice were sacrificed, their spleens removed, and splenic T cells were obtained via nylon wool columns.
# Normal saline or saline containing 25×10^6 /animal of the oxazolone-immune T cells were separately injected into naive mice. The mice were then challenged by painting 10 μl of 2 percent oxazolone onto one ear each. All procedures were carried out under sterile conditions and in endotoxin-free buffers.
# Prior to challenge or saline injection, the mice were implanted with pumps that subcutaneously administered normal saline, normal saline containing the compound, Compound ID No. 896.52, N-phenylacetyl-Leu-Asp-Phe-D-Pro-NH2, or normal saline containing a compound with a scrambled sequence continually at 6 mg/kg/day for a 24-hour time period. The swelling diameter at the site of challenge or saline injection was measured with a microcaliper 24 hours thereafter.
# An expanded study was carried out as described above except that a scrambled compound control was not used as a control for further inhibitor compounds of Table 1 with larger groups of mice. Statistical analyses were carried out versus injection of vehicle alone.
# [2] = system: New Zealand white rabbits; assay: Rabbit heterotopic cardiac allograft model; format: in vivo
# From the text: New Zealand white female rabbits (Charles River Lab., Saint Laurent, Quebec), between 3.5 and 4 kg underwent heterotopic cardiac transplant following an experimental protocol previously described [Alonso et al., Am. J. Pathol., 87:415-442 (1977); Clausell et al., Circulation, 89:2768-2779 (1994)]. The animals were unselected to favor an HLA-mismatch, the host rabbits were Pasteurella-free and the donors, outbred animals. Both host and donor rabbits were fed Purina 5321-0.5 percent cholesterol diet (Research Diets Inc., New Brunswick, N.J.), a strategy that has proven useful in accelerating the process of allograft arteriopathy [Alonso et al., Am, J. Pathol., 87:415-442 (1977)]. The diet was commenced four days prior to the transplant and continued in the recipient of the transplant until the completion of the experimental period.
# The technique of heterotopic cardiac transplantation has been previously described [Clausell et al., Circulation, 89:2768-2779 (1994)]. Briefly, a vertical incision was performed in the anterior aspect of the neck of the recipient rabbit and the left common carotid artery and the ipsilateral external jugular vein were isolated. The cardiac allograft was placed in the neck by anastomosing the aorta end-to-side to the recipient's carotid artery and the pulmonary end-to-side to the recipient's external jugular vein, following a total period of ischemia for the donor hearts of approximately 30 minutes. Postoperative care was in compliance with the Principles of Laboratory Animal Care formulated by the Canadian National Society for Medical Research.
# Beginning the day of the transplant, the animals were randomized and treated with either scrambled compound (control group) at 1 mg/kg s.c. or the inhibitor compound at 1 mg/kg s.c. The doses of the compounds were empirically extrapolated to the in vivo model based on preliminary in vitro studies, of Table 1. No other immunosuppression therapy was administered. The grafts were monitored daily by palpation and maintained for 7 to 8 days, a previously described endpoint that was associated with myocardial rejection (impaired cardiac contractility) and development of the allograft arteriopathy in this model [Clausell et al., Circulation, 89:2768-2779 (1994)]. A total of fourteen animals were studied in the control (n=7) and treated (n=7) groups.
# The animals were sacrificed using a lethal dose of euthanol (480 mg i.v.) (MTC Pharmaceutical, Cambridge, ON), host and donor hearts were removed, and the coronary arteries were perfused with saline through the aorta, followed by light fixation by perfusion with 2 percent paraformaldehyde (Sigma, St, Louis, Mo.). […] Different sections of the hearts were either saved in 10 percent formalin (BDH Inc., Toronto, ON) for light microscopy studies or immediately frozen in O.T.C. Compound Tissue Tek (Miles Inc., Elkart, Ind.) for specific immunohistochemistry studies.
# Three different paraffin-embedded tissue sections from host and donor hearts from both control and treated rabbits were stained by the Movat pentachrome method for light microscopy. Morphometric analysis was performed using a Zeiss microscope attached to a computer-generated video analysis system (Perceptics Inc., NuVision software), as described in Clausell et al., Circulation, 89:2768-2779 (1994). The number of vessels with intimal lesions were counted in all three heart sections from each animal studied and are expressed as a percentage of the total vessel number.
# In the host hearts, 999 vessels in the control group and 1054 vessels in the treated group were analyzed. In the donor hearts, 827 vessels in the control group and 617 vessels in the treated group were analyzed. To determine the severity of intimal thickening, the diameter of each traceable vessel in all three sections was measured and the coronary arteries were categorized as small (diameter <100 μm), medium (diameter >100<500 μm) and large (diameter >500 μm). […]
# [3] = system: Porcine peripheral blood lymphocytes; assay: In vitro porcine allograft model: transendothelial lymphocyte migration; format: cell-based; details: 10 μg/ml in the medium; IL-1β-stimulated SMC
# Protocol: A similar study was carried out in vitro using porcine coronary artery endothelial cells (EC; as are present in the IEL) and smooth muscle cells (SMC; as are present in the medial layer of the artery). The two cell types were cultured using a membrane transwell system, with the SMC on the bottom layer in M-199 medium (Gibco Labs.). The SMC were stimulated with 100 ng/ml of interleukin-1β (IL-1β) for 24 hours prior to the start of the assay. Porcine peripheral blood lymphocytes were separated by Ficoll-Hypaque, radiolabeled and incubated overnight (about 18 hours) on the EC.
# SJL/J mice = assay: Experimental autoimmune encephalomyelitis in mice; format: in vivo; details: 1 mg/mouse i.p. at days 8 and 9; FIG. 6; versus control compound
# Protocol: EAE was induced in female SJL/J mice (8 to 14 weeks old) by immunization on day zero with 50 μg of a compound corresponding to positions 139-151 of PLP emulsified in a 1:1 mixture of PBS and complete Freund's adjuvant (CFA). Each mouse was injected with 0.2 ml of the adjuvant emulsion subcutaneously (s.c.) at two sites in the hind flank. All mice received 10^7 killed Bordetella pertussis units in 100 μl were injected intravenously 24 to 72 hours later.
# Mice were observed daily, beginning at day 8 for clinical signs of EAE, and disease was scored on a scale of 0-5 as: 0=no disease; 1=floppy tail; 2=moderate hind limb weakness; 3=paraparesis; 4=paraplegis with moderate forelimb weakness; 5=qualdriplegis or premoribund state.
# The inhibitor compound, Compound ID No. 896.52, N-phenylacetyl-Leu-Asp-Phe-D-Pro-NH2 was administered intraperitoneally at 1 mg/mouse in 0.2 ml of incomplete Freund's adjuvant at days 8 and 9. A compound having a scrambled sequence [N-phenylacetyl-Asp-Leu-Phe-D-Pro-NH2 ] was similarly administered to serve as a control.
# Summed or averaged scores for clinical signs were plotted vs. time. The area under the resulting curves was calculated between day 8 and day 35 to calculate percentage inhibition of EAE by an inhibitor compound. The percent inhibition was calculated as follows:
# […]
# asthmatic sheep = assay: Treatment of asthmatic sheep (Ascaris suum antigen, crossover); format: in vivo; details: nebulized 1 mg/kg; FIG. 7
# Protocol: Six asthmatic sheep were treated in a double blind cross-over study. […] This study was carried out generally as described in Abraham et al., J. Clin. Invest., 93:776-787 (1994).
# The inhibitor compound used here was Compound ID No. 896.52, N-phenylacetyl-Leu-Asp-Phe-D-Pro-NH2, with a control compound that comprised the previously described compound having the same residues in a scrambled sequence. The vehicle for the nebulized compounds was phosphate-buffered saline. The compounds were administered at a dose of 1 mg/kg each, twice a day for three days prior to challenge, as well as 0.5 hours prior to and four hours post challenge on day 4. Because this was a crossover study, each animal received one or the other treatment, followed by a rest and then the other treatment. Each animal therefore served as its own control.
# Post challenge airway responsiveness was also assayed. Here, specific lung resistance, SRL, returned to baseline values 24 hours after challenge, however, the sheep were hyperresponsive to inhaled carbachol at that time.
structure (smiles),measurement,setting,value
"CC(C)C[C@H](NC(=O)Cc1ccccc1)C(=O)N[C@@H](CC(=O)O)C(=O)N[C@@H](Cc1ccccc1)C(=O)N1CCC[C@@H]1C(N)=O [896.52, N-phenylacetyl-Leu-Asp-Phe-D-Pro-NH2] (PhAc-LDF[dP]-NH2)",loss of potency in serum,[1],no loss of potency
same,Percent Inhibition (post-challenge swelling),"BALB/c mice; expanded study, versus vehicle alone",36%
same,reduction of inflammation (swelling diameter at challenge site),"BALB/c mice; initial study, 6 mg/kg/day s.c. pump, 24-hour, FIG. 5",reduced this type of CS-1/VLA-4-mediated immunoinflammation
same,Vessel Intimal Thickening: Percent of Vessels,"[2]; donor heart, 1 mg/kg s.c.",35%
same,Vessel Intimal Thickening: Severity (Percent of Vessel area),"[2]; donor heart, 1 mg/kg s.c.",16%
same,Baseline of incidence of intimal thickening,[2]; rabbit own host heart,12%
same,Baseline of severity of intimal thickening,[2]; rabbit own host heart,12%
same,reduction of transendothelial lymphocyte migration,[3],about 30%
same,clinical signs of EAE,SJL/J mice,marked improvement in clinical signs
same,change from baseline specific lung resistance (SRL) on challenge,asthmatic sheep,less of a change from baseline specific lung resistance
